Laboratory results: PMC6270661, “Antileishmanial Lead Structures from Nature: Analysis of Structure-Activity Relationships of a Compound Library Derived from Caffeic Acid Bornyl Ester” (Molecules, 2014)

Tests used:
L. major promastigotes = assay: AlamarBlue assay, antileishmanial activity against L. major promastigotes; assay type: cell-based, Leishmania major; details: for IC50: mean of two independent experiments; for Selectivity index SI: SI = IC50 for J774.1/IC50 for L. major (promastigotes)
Procedure: (§1) Antileishmanial activities of the synthesized compounds were evaluated in L. major promastigotes as described before and in L. donovani promastigotes according to Hazra et al.. […] The antiprotozoal activities are presented in Table 1, Table 2 and Table 3 as inhibitory concentrations (IC50). […] Materials and methods for the biological assays have been described before by the authors. […] The protocol for the L. donovani quantitative colorimetric assay is outlined by Hazra et al.. The IC50 values are presented as mean values of two independent experiments against the parasite and macrophages.

[1] = tested on: L. donovani promastigotes; assay: Quantitative colorimetric assay against L. donovani promastigotes; assay type: cell-based; details: mean of two independent experiments
Procedure: as §1

[2] = Cytotoxicity against bone marrow derived macrophages (BMDM); assay type: cell-based, murine; details: mouse
From the text: The amastigote is the intracellular pathogenic form of the parasite in the vertebrate host and therefore the important target. […] With regard to antileishmanial activity cinnamic acid menthyl (20) and […] (19) show good activities combined with low cytotoxicity. […] Materials and methods for the biological assays have been described before by the authors. […] The protocol for the L. donovani quantitative colorimetric assay is outlined by Hazra et al.. The IC50 values are presented as mean values of two independent experiments against the parasite and macrophages.

[3] = tested on: cysteine-cathepsin (L. major promastigote full-lysate); assay: Cysteine-cathepsin fluorescence activity assay with L. major promastigote full-lysate; assay type: biochemical, Leishmania major; details: preliminary experiments, result in words
L. major amastigotes = assay: L. major amastigote assay; assay type: cell-based, Leishmania major; details: for IC50: Leishmania major; for Selectivity index SI: SI = IC50 for BMDM/IC50 for L. major (amastigotes)
[4] = AlamarBlue cytotoxicity assay on J774.1 macrophages; assay type: cell-based, murine; details: mouse, J774.1 macrophage cell line, mean of two independent experiments
J774.1 murine cell line = assay: as above; assay type: cell-based

| Compound | IC50 (L. major promastigotes; Leishmania major) | IC50 ([1]; Leishmania donovani) | melting point | IC50 [4] | further results |
| --- | --- | --- | --- | --- | --- |
| CC1(C)C2CCC1(C)[C@H](OC(=O)/C=C/c1ccc(O)c(O)c1)C2 (stereo partly drawn) [Compound 1, Caffeic Acid (−)-bornyl Ester] | 48.8 µM | 27.3 µM |  | 8.3 µM | IC50 [2]: 5.3 µM; protease inhibitory activity [3]: showed protease inhibitory activity; IC50 (L. major amastigotes): 47.6 µM; Selectivity index SI (L. major amastigotes): 0.1 |
| COc1ccc(/C=C/C(=O)OC2CC3CCC2(C)C3(C)C)cc1O (stereo not drawn) [Compound 2, Isoferulic Acid (−)-bornyl Ester] |  |  |  |  | IC50 (L. major promastigotes): 64.4 µM; IC50 [1]: 41.3 µM; IC50 [2]: 49 µM; IC50 (L. major amastigotes): 39.2 µM; Selectivity index SI (L. major amastigotes): 1.2; IC50 (J774.1 murine cell line; mean of two independent experiments): 48.7 µM |
| CC1(C)C2CCC1(C)C(OC(=O)C=Cc1ccc(Cl)cc1)C2 (stereo not drawn) [Compound 3, 4-Chlorocinnamic Acid (−)-bornyl Ester] | 71.2 µM | > 100 µM | 80 to 83 °C | 49.5 µM |  |
| CC1(C)C2CCC1(C)C(OC(=O)C=Cc1ccc(Br)cc1)C2 (stereo not drawn) [Compound 4, 4-Bromocinnamic Acid (−)-bornyl Ester] | > 100 µM | > 100 µM | 71 to 74 °C | 54.6 µM |  |
| CN(C)c1ccc(C=CC(=O)OC2CC3CCC2(C)C3(C)C)cc1 (stereo not drawn) [Compound 5, 4-N-Dimethylaminocinnamic Acid (−)-bornyl Ester] | > 100 µM | > 100 µM | 114 to 116 °C | > 100 µM |  |
| CC1(C)C2CCC1(C)C(OC(=O)C=Cc1ccc(OCc3ccccc3)cc1)C2 (stereo not drawn) [Compound 6] | > 100 µM | > 100 µM | 93 to 95 °C | > 100 µM |  |
| CC1(C)C2CCC1(C)C(OC(=O)C=Cc1ccc([N+](=O)[O-])cc1)C2 (stereo not drawn) [Compound 9, 4-Nitrocinnamic Acid Isobornyl Ester] | > 100 µM | > 100 µM | 121 to 123 °C | > 100 µM |  |
| CC1(C)C2CCC1(C)C(OC(=O)C=Cc1ccccc1)C2 (stereo not drawn) [Compound 15, Cinnamic Acid (−)-Bornyl Ester] | 39.6 µM |  |  | 45.2 µM | Selectivity index SI (L. major promastigotes): 1.1; IC50 [2]: 54.3 µM; protease inhibitory activity [3]: showed protease inhibitory activity; IC50 (L. major amastigotes): 10.9 µM; Selectivity index SI (L. major amastigotes): 5.0 |
| CC1(C)C2CCC1(C)[C@H](OC(=O)/C=C/c1ccc(Cl)cc1Cl)C2 (stereo partly drawn) [Compound 17, 2,4-Dichlorocinnamic Acid (−)-bornyl Ester] | 80.5 µM | > 100 µM | 90 to 92 °C | 60.6 µM |  |
| O=C(/C=C/c1ccccc1)OC1CCCCC1 [Compound 23, Cinnamic Acid Cyclohexyl Ester] | > 100 µM | 23.4 µM |  | > 100 µM |  |
| CC(C)=CCCC(C)(OC(=O)C=Cc1ccccc1)C1CC=C(C)CC1 (stereo not drawn) [Compound 24, Cinnamic Acid Bisabolyl Ester] | > 100 µM | > 100 µM |  | > 100 µM |  |
| C=CCc1ccc(OC(=O)/C=C/c2ccccc2)c(OC)c1 [Compound 25, Cinnamic Acid Eugenyl Ester] | > 100 µM | 80.3 µM |  | 32.2 µM |  |
| CC(C)=CCC/C(C)=C/COC(=O)/C=C/c1ccccc1 [Compound 26, Cinnamic Acid Geranyl Ester] | > 100 µM | 41.9 µM |  | > 100 µM |  |
| CC1(C)C2CCC1(C)C(OC(=O)CCc1ccccc1)C2 (stereo not drawn) [Compound 27] | 50.2 µM |  |  | > 100 µM | Selectivity index SI (L. major promastigotes): >2.0; cytotoxicity J774.1 (in words) (J774.1 murine cell line; result in words): did not show cytotoxicity |
| C[C@@H]1[C@H](O)[C@@H](C)/C=C/C=C/C=C/C=C/C=C/C=C/C=C/[C@H](O[C@@H]2O[C@H](C)[C@@H](O)[C@H](N)[C@@H]2O)C[C@@H]2O[C@](O)(C[C@@H](O)C[C@@H](O)[C@H](O)CC[C@@H](O)C[C@@H](O)CC(=O)O[C@H]1C)C[C@H](O)[C@H]2C(=O)O [amphotericin B, reference compound] |  | 0.4 µM |  |  |  |
| N=C(N)c1ccc(OCCCCCOc2ccc(C(=N)N)cc2)cc1 [pentamidine, reference compound] | 82 µM |  |  | 38.6 µM |  |

Further compounds by falling IC50 (L. major promastigotes; Leishmania major), results first:

| IC50 (L. major promastigotes; Leishmania major) | IC50 ([1]; Leishmania donovani) | melting point | Compound | IC50 [4] | further results |
| --- | --- | --- | --- | --- | --- |
| 67 µM | 28.7 µM | 109 to 110 °C | O=C(/C=C/c1ccccc1)Oc1ccc2ccccc2c1 [Compound 22] | 44.5 µM |  |
| 65.6 µM | > 100 µM | 86 to 87 °C | CC1(C)C2CCC1(C)[C@H](OC(=O)/C=C/c1cccc(Cl)c1Cl)C2 (stereo partly drawn) [Compound 14, 2,3-Dichlorocinnamic acid (−)-bornyl ester] | 58.9 µM |  |
| 64.3 µM | 51.2 µM |  | CC1(C)C2CCC1(C)[C@@H](OC(=O)/C=C/c1ccccc1)C2 (stereo partly drawn) [Compound 18, Cinnamic Acid Isobornyl Ester] | 46 µM |  |
| 60.9 µM | > 100 µM | 87 to 90 °C | COc1ccc(/C=C/C(=O)O[C@@H]2CC3CCC2(C)C3(C)C)cc1 (stereo partly drawn) [Compound 16, 4-Methoxycinnamic Acid (−)-Bornyl Ester] | 42.6 µM |  |
| 60.6 µM | 74.5 µM |  | COc1ccc(C=CC(=O)OC2CC3CCC2(C)C3(C)C)cc1O (stereo not drawn) [Compound 8, Isoferulic Acid Isobornyl Ester] | 44.3 µM |  |
| 60 µM | > 100 µM | 66 °C | O=C(/C=C/c1ccccc1)OC12CC3CC(CC(C3)C1)C2 [Compound 21, Cinnamic Acid Adamantyl Ester] | 46.7 µM |  |
| 59.8 µM | 79.6 µM |  | COc1ccc(/C=C/C(=O)Oc2cc(C)ccc2C(C)C)cc1O [Compound 11, Isoferulic Acid Thymyl Ester] | 45.6 µM |  |
| 59.5 µM | 79.4 µM |  | CC1CCC(C(C)C)C(OC(=O)/C=C/c2ccc(O)c(O)c2)C1 (stereo not drawn) [Compound 12, Caffeic Acid Menthyl Ester] | 1.95 µM |  |
| 57.6 µM | 42.1 µM | 115 to 117 °C | Cc1ccc(C(C)C)c(OC(=O)/C=C/c2ccc(O)c(O)c2)c1 [Compound 10, Caffeic Acid Thymyl Ester] | 9.5 µM | IC50 [2]: 9.8 µM; IC50 (L. major amastigotes): 54.1 µM; Selectivity index SI (L. major amastigotes): 0.2 |
| 55 µM | > 100 µM |  | Cc1ccc(C(C)C)c(OC(=O)/C=C/c2ccccc2)c1 [Compound 19, Cinnamic Acid Thymyl Ester] | 44.8 µM | IC50 [2]: > 148 µM; IC50 (L. major amastigotes): 49.1 µM; Selectivity index SI (L. major amastigotes): >3.0 |
| 54.2 µM | > 100 µM |  | COc1ccc(/C=C/C(=O)OC2CC(C)CCC2C(C)C)cc1O (stereo not drawn) [Compound 13, Isoferulic Acid Menthyl Ester] | 44.6 µM |  |
| 53.1 µM | 79.7 µM |  | CC1CCC(C(C)C)C(OC(=O)/C=C/c2ccccc2)C1 (stereo not drawn) [Compound 20, Cinnamic Acid Menthyl Ester] | 44.8 µM | IC50 [2]: > 126 µM; IC50 (L. major amastigotes): 19.5 µM; Selectivity index SI (L. major amastigotes): >6.4 |
| 45.8 µM | 34.8 µM |  | CC1(C)C2CCC1(C)C(OC(=O)C=Cc1ccc(O)c(O)c1)C2 (stereo not drawn) [Compound 7, Caffeic Acid Isobornyl Ester] | 8.8 µM | IC50 [2]: 10.9 µM; IC50 (L. major amastigotes): 47 µM; Selectivity index SI (L. major amastigotes): 0.2 |
| 36.2 µM |  |  | CCCCCCCCCCCCCCCCOP(=O)([O-])OCC[N+](C)(C)C [miltefosine, reference compound] | 56.5 µM | IC50 [2]: 65.5 µM; IC50 (L. major amastigotes): 33 µM; Selectivity index SI (L. major amastigotes): 2.0 |
| 30.7 µM |  |  | CC(=O)Oc1ccc(/C=C/C(=O)O[C@@H]2CC3CCC2(C)C3(C)C)cc1OC(C)=O (stereo partly drawn) [Compound 28, 3-(3,4-Bis(acetyloxy))phenyl Propenoic Acid (−)-Bornyl Ester] | 2.1 µM |  |
